Laboratory results as given in patent US5496810A, “Pyrimidine deoxyribonucleoside potentiation of combination therapy based on 5-fluorouracil and interferon” (Montefiore Medical Center, priority 1994, dated 1996).

Tested on: HT-29 human carcinoma cells
Assay: cells
Details: for Cloning Efficiency (% of control): 72 hours
Description: HT-29 human carcinoma cells (ATCC No. HTB-38) were maintained in RPMI 1640 with 10%v/v fetal bovine serum (GIBCO) in a humidified, 5% CO2 atmosphere at 37° C. Cells were plated in 24 well plates (150 cells per well) in RPMI 1640 medium with 10% v/v dialyzed fetal bovine serum. […] The various agents were diluted in phosphate-buffered saline (PBS), and control wells received vehicle alone. After 72 hours, drug containing medium was removed and replaced with RPMI 1640 with 10%v/v fetal bovine serum. Cell colonies were allowed to grow for an additional 7-10 days, at which point they were stained and counted. […] Data are means of at least 3 determinations.

[1] = 5-FU 0, IFN 500 u/ml, 5-ETH or 5-PRO 150 μM
[2] = 5-FU 0.05 μM, IFN 500 u/ml, 5-ETH or 5-PRO 150 μM
[3] = 5-FU 0.10 μM, IFN 500 u/ml, 5-ETH or 5-PRO 150 μM
[4] = 5-FU 0.25 μM, alone (CONT) or with IFN 500 u/ml, 5-ETH or 5-PRO 150 μM
[5] = 5-FU 0.50 μM, alone (CONT) or with IFN 500 u/ml, 5-ETH or 5-PRO 150 μM
[6] = 5-FU 1.0 μM, alone (CONT) or with IFN 500 u/ml, 5-ETH or 5-PRO 150 μM
[7] = 5-FU 1.5 μM, alone (CONT) or with IFN 500 u/ml, 5-ETH or 5-PRO 150 μM

| SMILES | IC50 (Homo sapiens, HT-29, 72 h, read-out: 5-FU IC50, with 5-propynyloxy-2'-deoxyuridine (150 μM), 3 days of drug treatment) [nM] | inhibition at 2 µM (Homo sapiens, HT-29, 72 h, read-out: reduction in colonies) [%] | increased the cytotoxicity of 5-fluorouracil [times] | Cloning Efficiency (% of control) [1] [%] | Cloning Efficiency (% of control) [2] [%] | Cloning Efficiency (% of control) [3] [%] | Cloning Efficiency (% of control) [4] [%] | Cloning Efficiency (% of control) [5] [%] | Cloning Efficiency (% of control) [6] [%] | Cloning Efficiency (% of control) [7] [%] | Cloning Efficiency (% of control) (5-FU 2.0 μM, alone (CONT) or with IFN 500 u/ml, 5-PRO 150 μM) [%] | Cloning Efficiency (% of control) (5-FU 3.0 μM, alone (CONT) or with IFN 500 u/ml, 5-PRO 150 μM) [%] |
| --- | --- | --- | --- | --- | --- | --- | --- | --- | --- | --- | --- | --- |
| O=c1[nH]cc(F)c(=O)[nH]1 [5-FU, 5-fluorouracil] | 260 | 50 | – | – | – | – | – | – | – | – | – | – |
| C#CCOc1cn([C@H]2C[C@H](O)[C@@H](CO)O2)c(=O)[nH]c1=O [5-propynyloxy-2'-deoxyuridine, 5-(2-propynyloxy)-2'-deoxyuridine] | – | – | 7.7 | 105 | 100 | 81 | 51 | 26 | 9 | 4 | 2 | 0 |
| CCOc1cn([C@H]2C[C@H](O)[C@@H](CO)O2)c(=O)[nH]c1=O [5-ethoxy-2'-deoxyuridine] | – | – | 5.7 | 89 | 81 | 80 | 60 | 38 | 13 | 4 | – | – |
